Assay results taken from patent publication US8236756B2, “Prodrugs cleavable by CD26” (Consejo Superior de Investigaciones Clentificas (CSIC), priority 2003, dated 2012).

Target: T1, purified CD26 (Homo sapiens, UniProt P27487)
T1 construct: made in house
Assay: Conversion of peptide prodrugs to parent compound by purified CD26 (HPLC)
Type: biochemical
Conditions: for Conversion % to parent compound by purified CD26, 1 h / Conversion % to parent compound by purified CD26, 4 h / Conversion % to parent compound by purified CD26, 24 h: Table 1; for Conversion % to parent compound by purified CD26, 1 h / Conversion % to parent compound by purified CD26, 4 h / Conversion % to parent compound by purified CD26, 24 h / % conversion to parent compound by purified CD26, 1 h / % conversion to parent compound by purified CD26, 4 h / % conversion to parent compound by purified CD26, 24 h: purified CD26 1.5 mUnits
Description: To reveal whether CD26 recognizes such synthetic di/tripeptide derivatives of lipophilic nucleoside analogues as a substrate, 50 μM CAM-405 or CAM-431 was exposed to 5.7 mUnits of purified CD26, and the conversion of CAM-405 or CAM-431 to respectively CAM-212 or CAM-403 (Val-NAP-TSAO) was recorded in function of incubation time by HPLC analysis. […] Within the first 10 min of the reaction, at least 20% of CAM-405 had been converted to CAM-212, fifty percent of the TSAO dipeptide derivative was converted to CAM-212 within 30 min of the reaction and ˜67% of CAM-405 was hydrolyse after 60 min. Thus, the reaction rate started already to slow down after the first 10 min of drug exposure (FIG. 2). Most likely, the release of the reaction product Val-Pro dose-dependently feed-back inhibited the CD26-catalysed dipeptidyl-peptidase reaction. […] Thus, in the presence of 50 μM CAM-405, hydrolysis of 50% of CAM-405 to CAM-212 results in the appearance of 25 μM Val-Pro, that is a concentration that (feed-back) inhibits the CD26 reaction by ˜50%. These findings explain why the CD26-catalysed reaction levels-off shortly after the start of the exposure of the drug to CD26. […] Thus, a further level of modulation of the rate of prodrug release can be introduced by choosing a dipeptide moiety that competes for the active site of CD26, until the dipeptide has diffused from the tissue wherein CD26 is present. The inhibitory activity of any dipeptide can be evaluated by the above mentioned assay.
The conversion rate in function of time is given in Table 1 for NAP-TSAO-dipeptides where the dipeptide consists of: Val-Pro, Val-D-Pro, Asp-Pro, Lys-Pro, Tyr-Pro, Gly-Pro, Val-4-hydroxyPro, Gly-3,4-dihydroxyPro, but also Val-Gly, Val-Ala, Val-Leu and Val-Phe. It is clear that the conversion rate to the parent NAP-TSAO differs depending the nature of the dipeptide. Also, when the terminal amine of the dipeptide has been blocked by a lipophilic group (i.e. methyl, Z or Fmoc), the prodrug looses measurable substrate activity for CD26.
The conversion rate in function of time is given in Table 2 for tetrapeptide NAP-TSAO compounds where the tetrapeptide consists of: Val-Pro-Val-Pro [SEQ ID no:6] (CAM 467), Val-Ala-Val-Pro [SEQ ID no:7] (CAM 473) or Lys-Pro-Asp-Pro [SEQ ID no:8] (CAM 477). […] Only traces of dipeptide prodrug (CAM 405) is seen as intermediate in the conversion of the tetrapeptide CAM 473 to NAP-TSAO.
All enzyme activity assays were performed in Eppendorf tubes on a heating block at 37° C. To each tube were added 32 μl CD26 (at a final concentration of 1.5 milliUnits) or 10 μl foetal bovine serum (BS) (final concentration: 2.5% BS in PBS; preheated at 56° C. for 30 min) or 10 μl human serum (HS) (final concentration: 2.5% HS in PBS), 40 μl of appropriate concentrations of inhibitor (Diprotin A) solution in PBS (for the exact concentrations, see the legend to FIG. 5), CAM-405 (the substrate of the reaction) at […] (final concentration) and PBS to reach a total volume of 400 μl. The pH of the reaction mixture was 7.5, which is virtually identical to the physiological pH of plasma. The reaction was started by the addition of the enzyme or serum and carried out at 37° C. After 5 hr, 100 μl reaction mixture was taken from the Eppendorf tube and added to 200 μl cold methanol to precipitate the proteins. After 10 min standing on ice, the contents of the tubes were centrifuged and the supernatants analysed by HPLC on a reverse phase column (RP-8, Merck Laboratories). CAM-405 was separated from CAM-212 (the product of the reaction) by a gradient of 50 mM sodium phosphate+5 mM heptane sulfonic acid pH 3.2 (Buffer A) and acetonitrile (Buffer B) as follows: Buffer A: 98%+2% Buffer B, 2 min; linear gradient to 20% Buffer. […]

T1 sequence (P27487 whole entry): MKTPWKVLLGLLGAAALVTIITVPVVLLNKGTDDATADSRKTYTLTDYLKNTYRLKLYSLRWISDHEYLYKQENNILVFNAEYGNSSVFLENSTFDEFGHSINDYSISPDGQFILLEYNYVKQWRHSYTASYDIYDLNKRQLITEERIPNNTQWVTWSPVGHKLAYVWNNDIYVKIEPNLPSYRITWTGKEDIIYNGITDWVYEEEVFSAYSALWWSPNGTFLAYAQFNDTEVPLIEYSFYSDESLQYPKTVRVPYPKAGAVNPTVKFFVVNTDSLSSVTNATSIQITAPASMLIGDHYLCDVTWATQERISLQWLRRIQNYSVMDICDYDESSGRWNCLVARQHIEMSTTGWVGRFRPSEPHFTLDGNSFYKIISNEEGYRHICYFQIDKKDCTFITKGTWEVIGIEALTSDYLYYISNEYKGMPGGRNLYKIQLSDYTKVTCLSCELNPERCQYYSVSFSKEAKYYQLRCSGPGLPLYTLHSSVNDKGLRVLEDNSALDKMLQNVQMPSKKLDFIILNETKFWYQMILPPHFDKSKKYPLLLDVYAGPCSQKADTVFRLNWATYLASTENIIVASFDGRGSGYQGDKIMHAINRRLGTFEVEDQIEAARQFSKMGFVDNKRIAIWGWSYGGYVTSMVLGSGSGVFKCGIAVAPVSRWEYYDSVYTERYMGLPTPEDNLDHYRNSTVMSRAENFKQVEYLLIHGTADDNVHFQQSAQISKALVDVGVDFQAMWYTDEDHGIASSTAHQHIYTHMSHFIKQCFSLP

Row | Compound | Conversion % to parent compound by purified CD26, 4 h | Conversion % to parent compound by purified CD26, 24 h | % conversion to parent compound by purified CD26, 4 h (Table 2) | % conversion to parent compound by purified CD26, 24 h (Table 2) | Conversion / substrate activity with purified CD26, in words | also measured
1 | Cc1cn(C2OC(CO[Si](C)(C)C(C)(C)C)C3(OS(=O)(=O)C=C3N)C2O[Si](C)(C)C(C)(C)C)c(=O)n(CCCNC(=O)[C@@H]2CC(O)CN2C(=O)[C@@H](N)C(C)C)c1=O (stereo partly shown) [CAM-163, H-Val-4HyPro-NAP-TSAO] | 18% | 53% |  |  |  | Conversion % to parent compound by purified CD26, 1 h: 4.1%
2 | COc1cccc2c1C(=O)c1c(O)c3c(c(O)c1C2=O)CC(O)(C(=O)CO)CC3OC1CC(NC(=O)C2CCCN2C(=O)C(N)C(C)C)C(O)C(C)O1 (stereo not drawn) [CAM-469, H-Val-Pro-Doxorubicin] |  |  |  |  | very efficiently converted | % conversion to parent compound by purified CD26, 1 h (Table 5): 78%; % conversion to parent compound by purified CD26, 4 h (Table 5): 95%; % conversion to parent compound by purified CD26, 24 h (Table 5): 97%
3 | Cc1cn(C2OC(CO[Si](C)(C)C(C)(C)C)C3(OS(=O)(=O)C=C3N)C2O[Si](C)(C)C(C)(C)C)c(=O)n(CCCNC(=O)[C@@H](NC(=O)OCc2ccccc2)C(C)C)c1=O (stereo partly shown) [CAM-404, Z-Val-NAP-TSAO] | 0% | 0% |  |  |  | Conversion % to parent compound by purified CD26, 1 h: 0%
4 | H-Val-Pro-Val-NHP-TSAO [CAM-411] | 60% |  |  |  |  | Conversion % to parent compound by purified CD26, 1 h: 33%
5 | COc1cccc2c1C(=O)c1c(O)c3c(c(O)c1C2=O)CC(O)(C(=O)CO)CC3OC1CC(NC(=O)C2CCCN2C(=O)C(NC(=O)OCC2c3ccccc3-c3ccccc32)C(C)C)C(O)C(C)O1 (stereo not drawn) [CAM-468, Fmoc-Val-Pro-Doxorubicin] |  |  |  |  | no conversion | % conversion to parent compound by purified CD26, 1 h (Table 5): 0%; % conversion to parent compound by purified CD26, 4 h (Table 5): 0%; % conversion to parent compound by purified CD26, 24 h (Table 5): 0%

More lines, main results first:

Row | Conversion % to parent compound by purified CD26, 4 h | Conversion % to parent compound by purified CD26, 24 h | % conversion to parent compound by purified CD26, 4 h (Table 2) | % conversion to parent compound by purified CD26, 24 h (Table 2) | Compound | Conversion / substrate activity with purified CD26, in words | also measured
6 |  |  | 86% | 88% | Cc1cn(C2OC(CO[Si](C)(C)C(C)(C)C)C3(OS(=O)(=O)C=C3N)C2O[Si](C)(C)C(C)(C)C)c(=O)n(CCCNC(=O)C2CCCN2C(=O)C(NC(=O)C2CCCN2C(=O)C(N)C(C)C)C(C)C)c1=O (stereo not drawn) [CAM-467, H-Val-Pro-Val-Pro-NAP-TSAO] | quickly converted | % conversion to parent compound by purified CD26, 1 h (Table 2): 43%
7 | 85% | 99% | 85% | 99% | Cc1cn(C2OC(CO[Si](C)(C)C(C)(C)C)C3(OS(=O)(=O)C=C3N)C2O[Si](C)(C)C(C)(C)C)c(=O)n(CCCNC(=O)[C@@H]2CCCN2C(=O)[C@@H](N)CCCCN)c1=O (stereo partly drawn) [CAM-437, H-Lys-Pro-NAP-TSAO] | completely removed | 
8 | 7.9% | 30% | 7.9% | 30% | Cc1cn(C2OC(CO[Si](C)(C)C(C)(C)C)C3(OS(=O)(=O)C=C3N)C2O[Si](C)(C)C(C)(C)C)c(=O)n(CCCNC(=O)[C@@H]2CCCN2C(=O)[C@@H](N)CC(=O)O)c1=O (stereo partly drawn) [CAM-435, H-Asp-Pro-NAP-TSAO] |  | 
9 | 0% | 0% |  |  | NH2-Val-HyPro(Bzl)-NAP-TSAO [CAM-462] |  | 
10 | 0% | 0% |  |  | H-Gly-3.4Hypro-NAP-TSAO [CAM-465] |  | 
11 |  |  | 54% | 70% | Cc1cn(C2OC(CO[Si](C)(C)C(C)(C)C)C3(OS(=O)(=O)C=C3N)C2O[Si](C)(C)C(C)(C)C)c(=O)n(CCCNC(=O)C2CCCN2C(=O)C(NC(=O)C(C)NC(=O)C(N)C(C)C)C(C)C)c1=O (stereo not drawn) [CAM-473, H-Val-Ala-Val-Pro-NAP-TSAO] | occurs faster than with the Val-Ala-NAP-TSAO | % conversion to parent compound by purified CD26, 1 h (Table 2): 12%
